Values joined by “and” are separate entries in the source; they are usually repeats but may differ in a detail not shown here. Identical values can stand only once.

Assay type in all cases: cell-based
Assay [1] has as its target T1, 320 non-olfactory GPCRs (Homo sapiens, UniProt P35408).
T1 construct: expressed in transfected cells; host or cells: HTLA cells
The settings on record: receptor PTGER4; replicate values, Fig_4g.

Assay [2] concerns the target T2, 320 non-olfactory GPCRs (Homo sapiens, UniProt Q96P68).
T2 construct: expressed in transfected cells; host or cells: HTLA cells
The note with it: receptor OXGR1; replicate values, Fig_4g.

The target of assay [3] is T3, 320 non-olfactory GPCRs (Homo sapiens, UniProt P46092).
T3 construct: expressed in transfected cells; host or cells: HTLA cells

The target in assay [4] is T4, 320 non-olfactory GPCRs (Homo sapiens, UniProt P48146).
T4 construct: expressed in transfected cells; host or cells: HTLA cells
The settings on record: receptor NPBW2; replicate values, Fig_4g.
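For Fold of Basal in this document: compound tested at 1 µM final concentration.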
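For GPCRome agonism screen response in this document: fold over basal response of each receptor without drug.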

T1 sequence (P35408 whole entry): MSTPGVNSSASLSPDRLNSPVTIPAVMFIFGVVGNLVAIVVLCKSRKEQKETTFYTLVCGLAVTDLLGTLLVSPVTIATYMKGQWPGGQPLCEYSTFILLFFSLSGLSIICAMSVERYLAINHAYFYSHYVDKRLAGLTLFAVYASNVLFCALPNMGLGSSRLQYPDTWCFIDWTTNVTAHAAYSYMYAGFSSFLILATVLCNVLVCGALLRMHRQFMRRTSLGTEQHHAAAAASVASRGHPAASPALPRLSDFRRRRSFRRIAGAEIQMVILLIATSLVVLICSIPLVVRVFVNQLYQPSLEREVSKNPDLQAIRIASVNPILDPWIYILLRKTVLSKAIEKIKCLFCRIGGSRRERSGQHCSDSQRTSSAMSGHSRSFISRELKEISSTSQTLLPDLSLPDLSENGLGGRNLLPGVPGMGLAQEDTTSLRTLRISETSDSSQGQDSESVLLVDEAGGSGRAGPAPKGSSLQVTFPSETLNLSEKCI
T3 sequence (P46092 whole entry): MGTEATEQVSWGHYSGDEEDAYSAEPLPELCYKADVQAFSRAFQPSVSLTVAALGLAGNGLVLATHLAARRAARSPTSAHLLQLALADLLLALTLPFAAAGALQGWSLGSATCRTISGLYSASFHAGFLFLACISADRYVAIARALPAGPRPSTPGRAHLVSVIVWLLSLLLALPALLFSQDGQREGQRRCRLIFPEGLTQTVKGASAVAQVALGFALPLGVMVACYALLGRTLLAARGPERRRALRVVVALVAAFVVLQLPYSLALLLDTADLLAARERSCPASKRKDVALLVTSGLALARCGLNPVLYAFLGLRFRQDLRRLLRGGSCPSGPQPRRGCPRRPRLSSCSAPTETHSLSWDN
T4 sequence (P48146 whole entry): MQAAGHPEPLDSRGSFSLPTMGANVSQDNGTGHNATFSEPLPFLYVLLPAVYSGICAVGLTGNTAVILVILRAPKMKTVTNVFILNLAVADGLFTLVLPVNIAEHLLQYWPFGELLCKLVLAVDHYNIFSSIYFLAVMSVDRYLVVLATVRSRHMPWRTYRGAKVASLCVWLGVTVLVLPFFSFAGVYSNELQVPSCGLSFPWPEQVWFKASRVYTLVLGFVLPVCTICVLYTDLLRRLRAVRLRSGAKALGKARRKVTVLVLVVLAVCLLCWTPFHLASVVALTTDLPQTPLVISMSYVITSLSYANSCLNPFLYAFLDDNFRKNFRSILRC

As to `CCOc1cccc2cc(C(C)NCC3(O)CCCCC3)oc12` (stereo not shown) [O4LE6], the “GPCRome agonism screen response” value is 2.508 and 1.456 and 1.732 and 0.428 on 320 non-olfactory GPCRs [1]; 1.363 and 1.785 and 0.5079 and 1.083 at 320 non-olfactory GPCRs [2]; 0.5262 and 0.8272 and 1.363 and 1.562 on 320 non-olfactory GPCRs [4]. For the same molecule, at 320 non-olfactory GPCRs [3], the “Fold of Basal” value was 0.7929 and 1.009 and 0.769 and 1.275.
